Measured values taken from PubChem BioAssay AID2060605 (Molecular Pharmacology Branch, DTP, NCI, 2025).

Test system: 947758-054-R-J2-PDC spheroid growth, percent test/control
Assay: Anticancer human tumor 947758-054-R-J2-PDC patient-derived colon adenocarcinoma cell line growth inhibition [CLK]
Settings: spheroids with HUVEC and MSC; for IC50: curve of first compound; for viability, T/C: stronger effect = lower value
Outline: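 Patient-derived tumor cells grown as complex spheroids with HUVEC endothelial cells and mesenchymal stem cells, treated with drug combinations. Concentrations descend in half-log steps from near clinical Cmax, or from 10 microM if Cmax unknown.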

[1] = second compound 0.0316 µM, first compound 0.0316 µM
[2] = second compound 0.0316 µM, first compound 0.1 µM
[3] = second compound 0.0316 µM, first compound 0.316 µM
[4] = second compound 0.0316 µM, first compound 1 µM
[5] = second compound 0.0316 µM, first compound 3.16 µM
[6] = second compound 0.0316 µM, first compound 10 µM
[7] = second compound 0.1 µM, first compound 0.0316 µM
[8] = second compound 0.1 µM, first compound 0.1 µM
[9] = second compound 0.1 µM, first compound 0.316 µM
[10] = second compound 0.1 µM, first compound 1 µM
[11] = second compound 0.1 µM, first compound 3.16 µM
[12] = second compound 0.1 µM, first compound 10 µM
[13] = second compound 0.316 µM, first compound 0.0316 µM
[14] = second compound 0.316 µM, first compound 0.1 µM
[15] = second compound 0.316 µM, first compound 0.316 µM
[16] = second compound 0.316 µM, first compound 1 µM
[17] = second compound 0.316 µM, first compound 3.16 µM
[18] = second compound 0.316 µM, first compound 10 µM
[19] = second compound 1 µM, first compound 0.0316 µM
[20] = second compound 1 µM, first compound 0.1 µM
[21] = second compound 1 µM, first compound 0.316 µM
[22] = second compound 1 µM, first compound 1 µM
[23] = second compound 1 µM, first compound 3.16 µM
[24] = second compound 1 µM, first compound 10 µM
[25] = second compound 3.16 µM, first compound 0.0316 µM
[26] = second compound 3.16 µM, first compound 0.1 µM
[27] = second compound 3.16 µM, first compound 0.316 µM
[28] = second compound 3.16 µM, first compound 1 µM
[29] = second compound 3.16 µM, first compound 3.16 µM
[30] = second compound 3.16 µM, first compound 10 µM
[31] = second compound 10 µM, first compound 0.0316 µM
[32] = second compound 10 µM, first compound 0.1 µM
[33] = second compound 10 µM, first compound 0.316 µM
[34] = second compound 10 µM, first compound 1 µM
[35] = second compound 10 µM, first compound 3.16 µM
[36] = second compound 10 µM, first compound 10 µM
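Further: spheroids exposed to compounds for one week before readout.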
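Wherever viability, T/C is given: 100% = DMSO vehicle control wells.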

Compound `Nc1ccccc1NC(=O)c1ccc(CNC(=O)OCc2cccnc2)cc1` + CN1CCN(c2cc(C(=O)Nc3cc4cc(-c5cnn(C)c5)ccc4cn3)ccn2)CC1 has an IC50 (second compound 0.0316 µM) of 4620 nM, an IC50 (second compound 0.1 µM) of 2700 nM and an IC50 (second compound 0.316 µM) of less than 31.6 nM. The IC50 (second compound 1 µM) was less than 31.6 nM, the IC50 (second compound 3.16 µM) was less than 31.6 nM and the IC50 (second compound 10 µM) was less than 31.6 nM. The viability, T/C [1] was 133%, the viability, T/C [2] was 136% and the viability, T/C [3] was 153%. The viability, T/C [4] was 166%, the viability, T/C [5] was 70.3% and the viability, T/C [6] was 8.87%. For the same compound, the viability, T/C [7] was 188%, the viability, T/C [8] was 178% and the viability, T/C [9] was 190%. It also gave a viability, T/C [10] of 129%, a viability, T/C [11] of 39.4% and a viability, T/C [12] of 4.71%. The viability, T/C [13] was 2.88%, the viability, T/C [14] was 6% and the viability, T/C [15] was 2.2%. It also gave a viability, T/C [16] of 0.82%, a viability, T/C [17] of 1.3% and a viability, T/C [18] of 0.07%. The viability, T/C [19] was 0.15%, the viability, T/C [20] was 0.18% and the viability, T/C [21] was 0.2%. It also gave a viability, T/C [22] of 0.12%, a viability, T/C [23] of 0.57% and a viability, T/C [24] of 2.05%. The viability, T/C [25] was 0.21%, the viability, T/C [26] was 0.63% and the viability, T/C [27] was 0.29%. For the same compound, the viability, T/C [28] was 0.28%, the viability, T/C [29] was 0.32% and the viability, T/C [30] was 2.87%. The viability, T/C [31] was 0.31%, the viability, T/C [32] was 0.32% and the viability, T/C [33] was 1.85%. For the same compound, the viability, T/C [34] was 0.43%, the viability, T/C [35] was 0.45% and the viability, T/C [36] was 2.2%.
In the case of `CC(=O)O[C@H]1C(=O)[C@@]2(C)[C@H]([C@H](OC(=O)c3ccccc3)[C@]3(O)C[C@H](OC(=O)[C@H](O)[C@@H](NC(=O)c4ccccc4)c4ccccc4)C(C)=C1C3(C)C)[C@]1(OC(C)=O)CO[C@@H]1C[C@@H]2O` + CN1CCN(c2cc(C(=O)Nc3cc4cc(-c5cnn(C)c5)ccc4cn3)ccn2)CC1, the IC50 (second compound 0.0316 µM) is reported as less than 31.6 nM, the IC50 (second compound 0.1 µM) is reported as less than 31.6 nM and the IC50 (second compound 0.316 µM) is reported as less than 31.6 nM. For the same compound, the IC50 (second compound 1 µM) was less than 31.6 nM, the IC50 (second compound 3.16 µM) was less than 31.6 nM and the IC50 (second compound 10 µM) was less than 31.6 nM. For the same compound, the viability, T/C [1] was 7.4%, the viability, T/C [2] was 6.03% and the viability, T/C [3] was 4.94%. For the same compound, the viability, T/C [4] was 5.77%, the viability, T/C [5] was 6.99% and the viability, T/C [6] was 11.8%. The viability, T/C [7] was 5.33%, the viability, T/C [8] was 5.11% and the viability, T/C [9] was 4.6%. It also gave a viability, T/C [10] of 4.61%, a viability, T/C [11] of 5.41% and a viability, T/C [12] of 8.84%. The viability, T/C [13] was 1.4%, the viability, T/C [14] was 1.86% and the viability, T/C [15] was 2.27%. It also gave a viability, T/C [16] of 1.92%, a viability, T/C [17] of 2.04% and a viability, T/C [18] of 2.67%. For the same compound, the viability, T/C [19] was 0.1%, the viability, T/C [20] was 0.12% and the viability, T/C [21] was 0.3%. It also gave a viability, T/C [22] of 0.08%, a viability, T/C [23] of 0.09% and a viability, T/C [24] of 0.09%. It also gave a viability, T/C [25] of 0.16%, a viability, T/C [26] of 0.22% and a viability, T/C [27] of 0.21%. For the same compound, the viability, T/C [28] was 0.14%, the viability, T/C [29] was 1.02% and the viability, T/C [30] was 0.58%. It also gave a viability, T/C [31] of 1.41%, a viability, T/C [32] of 0.29% and a viability, T/C [33] of 0.23%. The viability, T/C [34] was 0.25%, the viability, T/C [35] was 0.27% and the viability, T/C [36] was 0.7%.
`C=CC(=O)Nc1cc(Nc2nccc(-c3cn(C)c4ccccc34)n2)c(OC)cc1N(C)CCN(C)C` + CN1CCN(c2cc(C(=O)Nc3cc4cc(-c5cnn(C)c5)ccc4cn3)ccn2)CC1 showed an IC50 (second compound 0.0316 µM) greater than 300 nM, an IC50 (second compound 0.1 µM) greater than 300 nM and an IC50 (second compound 0.316 µM) of less than 0.949 nM. The IC50 (second compound 1 µM) was less than 0.949 nM, the IC50 (second compound 3.16 µM) was less than 0.949 nM and the IC50 (second compound 10 µM) was less than 0.949 nM. The viability, T/C (second compound 0.0316 µM, first compound 0.000949 µM) was 102%, the viability, T/C (second compound 0.0316 µM, first compound 0.003 µM) was 111% and the viability, T/C (second compound 0.0316 µM, first compound 0.00949 µM) was 100%. For the same compound, the viability, T/C (second compound 0.0316 µM, first compound 0.03 µM) was 81.4%, the viability, T/C (second compound 0.0316 µM, first compound 0.0949 µM) was 116% and the viability, T/C (second compound 0.0316 µM, first compound 0.3 µM) was 137%. The viability, T/C (second compound 0.1 µM, first compound 0.000949 µM) was 157%, the viability, T/C (second compound 0.1 µM, first compound 0.003 µM) was 163% and the viability, T/C (second compound 0.1 µM, first compound 0.00949 µM) was 152%. It also gave a viability, T/C (second compound 0.1 µM, first compound 0.03 µM) of 179%, a viability, T/C (second compound 0.1 µM, first compound 0.0949 µM) of 120% and a viability, T/C (second compound 0.1 µM, first compound 0.3 µM) of 106%. The viability, T/C (second compound 0.316 µM, first compound 0.000949 µM) was 4.91%, the viability, T/C (second compound 0.316 µM, first compound 0.003 µM) was 4.6% and the viability, T/C (second compound 0.316 µM, first compound 0.00949 µM) was 2.55%. For the same compound, the viability, T/C (second compound 0.316 µM, first compound 0.03 µM) was 3.23%, the viability, T/C (second compound 0.316 µM, first compound 0.0949 µM) was 2.33% and the viability, T/C (second compound 0.316 µM, first compound 0.3 µM) was 3.21%. It also gave a viability, T/C (second compound 1 µM, first compound 0.000949 µM) of 0.14%, a viability, T/C (second compound 1 µM, first compound 0.003 µM) of 0.99% and a viability, T/C (second compound 1 µM, first compound 0.00949 µM) of 0.15%. The viability, T/C (second compound 1 µM, first compound 0.03 µM) was 0.13%, the viability, T/C (second compound 1 µM, first compound 0.0949 µM) was 0.11% and the viability, T/C (second compound 1 µM, first compound 0.3 µM) was 0.14%. The viability, T/C (second compound 3.16 µM, first compound 0.000949 µM) was 0.4%, the viability, T/C (second compound 3.16 µM, first compound 0.003 µM) was 1.42% and the viability, T/C (second compound 3.16 µM, first compound 0.00949 µM) was 1.1%. The viability, T/C (second compound 3.16 µM, first compound 0.03 µM) was 0.23%, the viability, T/C (second compound 3.16 µM, first compound 0.0949 µM) was 2.07% and the viability, T/C (second compound 3.16 µM, first compound 0.3 µM) was 1.52%. For the same compound, the viability, T/C (second compound 10 µM, first compound 0.000949 µM) was 0.82%, the viability, T/C (second compound 10 µM, first compound 0.003 µM) was 0.35% and the viability, T/C (second compound 10 µM, first compound 0.00949 µM) was 1%. For the same compound, the viability, T/C (second compound 10 µM, first compound 0.03 µM) was 1.25%, the viability, T/C (second compound 10 µM, first compound 0.0949 µM) was 0.32% and the viability, T/C (second compound 10 µM, first compound 0.3 µM) was 0.26%.
